The IC50 is the concentration at which inhibition is half-maximal. By pIC50 is commonly meant the IC50 on a negative log10 scale, so that one unit is a factor of ten.

pIC50: −log10 of the molar value. Activity calls are given as the source filed them. The rule behind the calls is not given here.

In ChEMBL document CHEMBL5634109, “Synthesis and mechanism of action of new purine derivatives against triple negative breast cancer” (Eur J Med Chem, 2023) one finds Activity, IC50 and inhibition data, which are given here for 1 compound.

In data set [1] the test system is MDA-MB-231. As to the kind of experiment: Induction of apoptosis in human MDA-MB-231 cells assessed as increase in number of cell debris at 4 uM incubated for 48 hrs. Type of data set: functional, cell-based.
The test system of data set [2] is MDA-MB-231. As to the kind of experiment: Antitumor activity against human MDA-MB-231 cells xenografted in nude mouse assessed as inhibition of spleen metastasis in tumor at 10 mg/kg, ip measured for 3 days. The note with it: time 3.0 day. Type of data set: functional, organism-based.
A short description of data set [3]: Antiproliferative activity against human HEK293 cells assessed as reduction in cell viability measured for 48 hrs by MTT assay. Type of data set: toxicity, cell-based. (In general: Tetrazolium dyes change colour on reduction, which living cells bring about.)
Data set [4] concerns MDA-MB-231. Put plainly: Induction of apoptosis in human MDA-MB-231 cells assessed as apoptotic cells at 4 uM incubated for 24 hrs by Annexin V-FITC/PI staining based analysis. The class given is functional.
Data set [5] relates to NCI-H1299. Put plainly: Antiproliferative activity against human NCI-H1299 cells assessed as reduction in cell viability measured for 48 hrs by MTT assay. Particulars: NCI-H1299, 48 h. The class given is functional, cell-based.
For data set [6], the system named is A549. As to the kind of experiment: Antiproliferative activity against human A549 cells assessed as reduction in cell viability measured for 48 hrs by MTT assay. The class given is functional, cell-based. Particulars: A549, 48 h.
The nature of data set [7]: Inhibition of PI3K/AKT/mTOR signaling pathway in human MDA-MB-231 cells assessed as increase in p38 expression at 2 to 4 uM incubated for 6 hrs by Western blot analysis. The class given is cell-based. The note with it: dose 2-4 µM. (In general: In western blotting, separated proteins are transferred to a membrane and probed.)
The subject of data set [8] is MDA-MB-231. Put plainly: Induction of apoptosis in human MDA-MB-231 cells assessed as apoptotic cells at 4 uM incubated for 48 hrs by Annexin V-FITC/PI staining based analysis. Type of data set: functional.
Data set [9] has as its system MDA-MB-231. Put plainly: Inhibition of cell migration human MDA-MB-231 cells assessed as migration distance at 25 uM incubated for 24 hrs by wound healing assay (reference value: 642.72 micrometer). The class given is functional.
The target of data set [10] is Dual specificity protein kinase CLK2 (Homo sapiens, UniProt P49760). Put plainly: Inhibition of CLK2 (unknown origin).
A short description of data set [11]: Inhibition of PI3K/AKT/mTOR signaling pathway in human MDA-MB-231 cells assessed as decrease in AKT phosphorylation at 1 to 4 uM incubated for 6 hrs by Western blot analysis. Type of data set: cell-based. The note with it: dose 1-4 µM.
For data set [12], the system named is MDA-MB-231. As to the kind of experiment: Antitumor activity against human MDA-MB-231 cells xenografted in nude mouse assessed as decrease in tumor size at 10 to 20 mg/kg, ip measured for 3 days. The class given is functional, organism-based. The note with it: dose 10-20 mg/kg, time 3.0 day. A general note: In xenograft studies the graft and the host belong to different species.

Data set [13] deals with Dual specificity protein kinase CLK4 (Homo sapiens, UniProt Q9HAZ1). Put plainly: Inhibition of CLK4 (unknown origin).
Data set [14] relates to MDA-MB-231. As to the kind of experiment: Induction of apoptosis in human MDA-MB-231 cells assessed as apoptotic cells at 40 uM incubated for 24 hrs by Annexin V-FITC/PI staining based analysis. Type of data set: functional.

Sequence of Dual specificity protein kinase CLK4 (Q9HAZ1 whole entry): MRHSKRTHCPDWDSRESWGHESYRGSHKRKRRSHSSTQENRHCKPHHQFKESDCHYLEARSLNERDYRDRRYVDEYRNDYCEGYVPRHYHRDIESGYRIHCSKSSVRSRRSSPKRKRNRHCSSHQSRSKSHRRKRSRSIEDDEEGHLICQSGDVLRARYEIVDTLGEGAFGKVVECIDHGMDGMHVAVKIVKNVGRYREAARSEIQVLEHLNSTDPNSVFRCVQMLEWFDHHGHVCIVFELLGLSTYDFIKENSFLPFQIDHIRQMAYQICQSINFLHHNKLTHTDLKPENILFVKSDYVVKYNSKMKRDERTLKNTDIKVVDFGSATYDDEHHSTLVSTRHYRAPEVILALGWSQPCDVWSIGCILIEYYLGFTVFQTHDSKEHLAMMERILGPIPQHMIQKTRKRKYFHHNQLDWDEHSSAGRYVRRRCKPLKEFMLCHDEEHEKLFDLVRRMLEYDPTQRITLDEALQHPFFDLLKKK
Sequence of Dual specificity protein kinase CLK2 (P49760 whole entry): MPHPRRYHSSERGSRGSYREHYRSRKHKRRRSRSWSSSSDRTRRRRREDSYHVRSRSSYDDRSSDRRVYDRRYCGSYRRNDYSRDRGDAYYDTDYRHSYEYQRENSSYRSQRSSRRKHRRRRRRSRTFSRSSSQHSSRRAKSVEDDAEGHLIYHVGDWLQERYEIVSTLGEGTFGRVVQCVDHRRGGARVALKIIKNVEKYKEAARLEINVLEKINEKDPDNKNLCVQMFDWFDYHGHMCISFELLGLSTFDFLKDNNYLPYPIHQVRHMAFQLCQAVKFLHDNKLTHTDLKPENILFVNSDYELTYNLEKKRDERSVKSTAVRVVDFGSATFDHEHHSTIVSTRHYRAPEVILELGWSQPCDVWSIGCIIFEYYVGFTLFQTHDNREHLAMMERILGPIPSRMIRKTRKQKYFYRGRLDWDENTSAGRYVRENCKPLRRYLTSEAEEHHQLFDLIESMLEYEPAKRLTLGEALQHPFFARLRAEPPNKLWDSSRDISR

Regarding `OCCN1CCC(C2CCN(c3nc(NCc4ccc(F)c(Cl)c4)c4ncn(CC5CC5)c4n3)CC2)CC1`, the result in data set [1], in data set [2] and in data set [12] was Active. Also, the IC50 at 48 h in data set [3] was 4.32 µM. The Activity was 97.1% in data set [4], 96.3% in data set [8], 15.08 um in [9] and above 95% in [14]. Besides, the pIC50 in data set [5] is 5.37; in data set [6], 5.67; in [10], 6.71; in [13], 6.16. The inhibition entry in data set [7] and in data set [11] was “Active” throughout.
